Assay results published in patent US8071576B2, “Method of preventing or treating benign gynaecological disorders” (Pantarhei Bioscience B.V., priority 2001, dated 2011).

What was measured:
[1] = Clinical study: ethinyl estradiol/levonorgestrel with or without DHEA (Example 2); format: in vivo; details: 50 mg DHEA daily oral added to ethinyl estradiol/levonorgestrel for 104 days, versus women not receiving DHEA
Method: A clinical study is conducted in 200 healthy young women. […] Vaginal spotting and bleeding is scored daily by the participants in a diary and the effects on general well being are scored at baseline and at each study visit (every 5 weeks during study drug administration) on a psychometric rating scale. The psychometric rating scale used is especially suited for identifying differences in a population of healthy young women. The scale is a 24-item (placid, sleepy, jittery, intense, lacking confidence, energetic, sensitive, tired, well-balanced, at-rest, drowsy, fearful, lively, sickly, in a good mood, irritable, lethargic, quiet, full-of-pep, optimistic, moody, active, tense, sad), 4-point (yes, definitely; yes, a bit; no, in fact not; no, definitely not) scale to be scored by the person themself. In addition, endocrine measurements are performed in a subgroup of the participants (17β-estradiol, progesterone, total testosterone, LH, FSH and SHBG).

[2] = Clinical study: 17β-estradiol/norethisterone acetate with or without DHEA (Example 3); format: in vivo; details: 50 mg DHEA daily oral added to 3 mg 17β-estradiol and 1.5 mg norethisterone acetate for 104 days, versus women not receiving DHEA
Method: A clinical study is conducted in 100 healthy young women. […] Vaginal spotting and bleeding is scored daily by the participants in a diary. The effects on general well being are scored at baseline and at each study visit (every 5 weeks during study drug administration) using the psychometric rating scale described in example 2.
Ovulation inhibition is investigated by analysing pregnanediol samples twice a week during 4 weeks between week 7 and 14. In addition, endocrine measurements are performed in a subgroup of the participants (17β-estradiol, progesterone, total testosterone, LH, FSH and SHBG).

[3] = test system: endometrium; details: DHEA applied on the dorsal skin of ovariectomized rats, all time intervals; cited from earlier work
[4] = test system: endometrium; assay: McPhail test: endometrial differentiation in estradiol-pretreated rabbits; format: in vivo; details: rabbits pretreated with 5 μg 17β-estradiol s.c. for 6 days; levonorgestrel 8 μg/day oral and/or testosterone 20 mg/day s.c. for 5 days; scores 0-4
Method: The effects on endometrium of the progestogen levonorgestrel and the androgen testosterone were determined in rabbits according to the method of McPhail (Mc Phail M. K. “The assay of progestin” J Physiol (1934), 83, 145-156). Four groups of each 5 rabbits were pretreated with daily subcutaneous dosages of 5 μg 17β-estradiol for 6 days.
After pretreatment, 3 groups either received levonorgestrel at an oral dose of 8 μg per day for 5 days, testosterone in a subcutaneous dose of 20 mg per day for 5 days, or levonorgestrel and testosterone together in the aforementioned routes and doses for 5 days. The fourth group was used as the negative control.
Autopsy was performed after the treatment period and the uterus was weighed and histological sections were prepared from each uterine horn and these were microscopically evaluated according to the McPhail Index (scores 0-4; 0=no differentiation; 4=maximal differentiation).

[5] = target: T1, androgen receptors (Homo sapiens, UniProt P10275); details: precursors per se, in the female body; cited from earlier work
T1 sequence (P10275 1-920): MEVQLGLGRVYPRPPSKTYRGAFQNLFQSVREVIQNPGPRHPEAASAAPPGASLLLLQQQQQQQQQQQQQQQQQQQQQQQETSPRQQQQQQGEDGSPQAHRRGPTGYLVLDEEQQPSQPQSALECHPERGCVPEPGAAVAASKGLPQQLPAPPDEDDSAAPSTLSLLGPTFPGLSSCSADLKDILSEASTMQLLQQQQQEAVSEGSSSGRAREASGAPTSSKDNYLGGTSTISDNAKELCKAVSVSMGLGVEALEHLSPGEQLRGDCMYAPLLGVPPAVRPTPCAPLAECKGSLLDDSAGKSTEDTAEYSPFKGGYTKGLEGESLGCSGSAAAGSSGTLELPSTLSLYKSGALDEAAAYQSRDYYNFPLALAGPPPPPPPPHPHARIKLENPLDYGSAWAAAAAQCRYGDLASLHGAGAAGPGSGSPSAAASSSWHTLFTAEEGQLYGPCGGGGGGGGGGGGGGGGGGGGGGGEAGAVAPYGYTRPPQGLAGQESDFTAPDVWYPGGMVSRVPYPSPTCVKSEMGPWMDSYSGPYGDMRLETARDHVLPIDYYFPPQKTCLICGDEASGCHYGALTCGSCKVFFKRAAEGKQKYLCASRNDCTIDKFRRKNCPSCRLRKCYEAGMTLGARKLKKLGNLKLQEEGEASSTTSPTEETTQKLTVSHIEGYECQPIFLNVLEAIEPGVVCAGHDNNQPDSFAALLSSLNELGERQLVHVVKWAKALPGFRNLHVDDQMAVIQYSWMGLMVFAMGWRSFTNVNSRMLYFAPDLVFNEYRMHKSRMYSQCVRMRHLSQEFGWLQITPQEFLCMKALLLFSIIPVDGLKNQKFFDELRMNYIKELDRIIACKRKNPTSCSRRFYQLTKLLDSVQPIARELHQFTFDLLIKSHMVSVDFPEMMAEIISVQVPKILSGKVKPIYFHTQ

For `C[C@]12CC[C@H](O)CC1=CC[C@@H]1[C@@H]2CC[C@]2(C)C(=O)CC[C@@H]12` [DHEA, dehydroepiandrosterone], the “psychometric scores on items in the domain of energy” value [1] was “generally better scores”, the side effects [1] was “less side effects” and the “vaginal breakthrough spotting and bleeding” value [1] was “less vaginal breakthrough spotting and bleeding”. The “psychometric scores on items in the domain of energy” value [2] was “generally better scores”, the side effects [2] was “less side effects” and the “vaginal breakthrough spotting and bleeding” value [2] was “less vaginal breakthrough spotting and bleeding”. The “state of the endometrium during DHEA treatment” value [3] was “remained atrophic”.
In the case of `C#C[C@]1(O)CC[C@H]2[C@@H]3CCC4=CC(=O)CC[C@@H]4[C@H]3CC[C@@]21CC` [levonorgestrel], the McPhail index [4] is reported as 2.1±0.4.
For `CCCCCCCCCCC(=O)O[C@H]1CC[C@H]2[C@@H]3CCC4=CC(=O)CC[C@]4(C)[C@H]3CC[C@]12C` [testosterone undecanoate], the “affinity for the androgen receptors” value [5] is listed as “virtually no affinity”.
`C[C@]12CC[C@H]3[C@@H](CCC4=CC(=O)CC[C@@]43C)[C@@H]1CC[C@@H]2O` [testosterone] showed a McPhail index [4] of 2.9±0.1.
